Source: PMC9532399, “The lysosomal transporter TAPL has a dual role as peptide translocator and phosphatidylserine floppase” (Nature Communications, 2022)
Where a chain is given by its changes, count along the chain named. No end group written: not given here.

T1: TAPL Y405A mutant (Mus musculus, UniProt Q9JJ59, Y405A)
T1 construct: thrombin cleavage site (C); eGFP (C); 10XHis (C); made in house; host or cells: Trichoplusia ni High Five (Hi5) insect cells, baculovirus (pVL1393)
T1 sequence (Q9JJ59 143-762 Y405A): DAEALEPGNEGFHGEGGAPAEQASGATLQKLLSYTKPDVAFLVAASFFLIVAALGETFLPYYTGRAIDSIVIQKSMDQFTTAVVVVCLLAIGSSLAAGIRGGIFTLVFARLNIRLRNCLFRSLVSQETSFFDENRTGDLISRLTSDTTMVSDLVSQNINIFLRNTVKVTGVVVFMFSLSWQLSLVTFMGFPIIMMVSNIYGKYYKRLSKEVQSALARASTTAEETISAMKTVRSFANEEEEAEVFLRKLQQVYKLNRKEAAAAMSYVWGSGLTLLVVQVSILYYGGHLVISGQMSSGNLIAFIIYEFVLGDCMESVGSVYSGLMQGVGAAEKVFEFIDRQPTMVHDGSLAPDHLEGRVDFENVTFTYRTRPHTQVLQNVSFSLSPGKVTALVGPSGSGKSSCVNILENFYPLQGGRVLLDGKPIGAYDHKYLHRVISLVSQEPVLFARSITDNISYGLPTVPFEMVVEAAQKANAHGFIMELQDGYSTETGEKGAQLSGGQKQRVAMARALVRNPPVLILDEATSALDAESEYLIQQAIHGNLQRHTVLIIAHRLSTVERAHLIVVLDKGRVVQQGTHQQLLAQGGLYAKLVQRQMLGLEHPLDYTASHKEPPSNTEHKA

T2: mouse TAPL ΔTMD0 (Mus musculus, UniProt Q9JJ59)
T2 construct: thrombin cleavage site (C); eGFP (C); 10XHis (C); made in house; host or cells: Trichoplusia ni High Five (Hi5) insect cells, baculovirus (pVL1393)
T2 sequence (Q9JJ59 143-762): T1 sequence (Q9JJ59 143-762 Y405A) with A263Y

T3: mouse TAPL ΔTMD0 Y405A mutant (mouse, UniProt Q9JJ59 143-762, Y405A)
T3 construct: mouse TAPL (ABCB9) lacking the N-terminal 142 residues (TMD0), with Y405A; source: High Five (Hi5) insect cells, baculovirus; DM-purified; not shown: eGFP, C-terminal, cleaved; His10, C-terminal, cleaved
T3 sequence (looked up): T1 sequence (Q9JJ59 143-762 Y405A)

B1: 9-mer peptide RRYQKSTEL (peptide)
peptide: RRYQKSTEL
notes: short synthetic peptide known to be transported by human TAPL; source: synthetic peptide (ANYGEN Co., Ltd.)
B2: mouse TAPL truncation mutant devoid of the N-terminal 142 residues (ΔTMD0) (domain or fragment, UniProt Q9JJ59 143-762, looked up)
chain: T1 sequence (Q9JJ59 143-762 Y405A) with A263Y
notes: mouse TAPL (ABCB9), protein of 762 amino acids, lacking the N-terminal 142 residues (TMD0); Homodimer by the cryo-EM structures; A thrombin site stood between TAPL and eGFP-10XHis; residues of the site may be left at the C-terminus after cleavage; also called ABCB9; TAP-like; source: High Five (Hi5) insect cells, baculovirus; purified (anti-GFP DARPin agarose, on-column thrombin cleavage, gel …)
B3: Cy5-labeled 9-mer peptide RRYQNSTC(Cy-5)L (peptide)
peptide: RRYQNSTC(Cy5)L
notes: synthetic 9-mer peptide with a single cysteine for labeling; also called Cy5-labeled peptide; source: synthetic peptide (ANYGEN Co., Ltd.), labeled with Cy5, desalted

Key:
TAPL Y405A mutant = molecular target: T1, TAPL Y405A mutant; experiment: Lipid-stimulated ATPase assay, DM-purified Y405A mutant; format: biochemical; details: Y405A vs WT
Protocol: (§1) The ATPase activities of proteins obtained after various purification procedures were determined by NADH-coupled spectrophotometric assays. 10 μg of DM-purified or nanodisc-reconstituted protein was added to 140 μL of reaction buffer containing 50 mM HEPES–KOH pH 8.0, 60 μg/mL pyruvate kinase (Roche), 16 μg/mL lactate dehydrogenase (Roche), 10 mM phosphoenolpyruvate (Roche), 0.3 mM NADH, 3 mM ATP, 10 mM MgCl2, and 0.17% (w/v) DM in the presence or absence of 250 μM peptide. For proteins reconstituted into nanodiscs, DM was not added to the reaction buffer. For lipid-stimulated ATPase assays, the thin film of lipids was hydrated in 100 μL of buffer containing 50 mM HEPES–KOH pH 8.0 and 10 mM MgCl2 to yield a 10 mM solution. After sonication of the lipid solution for 10 min to decrease its turbidity, the reaction was initiated by adding varying concentrations of lipids to the mixture. ATP hydrolysis activity was monitored at 37 °C for 3 min by measuring the rate of decline of NADH absorbance at 340 nm. To inhibit ATP hydrolysis, the reaction mixture was incubated with 3 mM AMP-PNP or 8 mM NaF/2 mM BeSO4 for 5 min at RT. The kinetic parameters of ATP hydrolysis were calculated by fitting the initial rates of ATP hydrolysis to the Michaelis–Menten equation using PRISM 4.0 (GraphPad software).

mouse TAPL ΔTMD0 [1] = molecular target: T2, mouse TAPL ΔTMD0; experiment: Lipid-stimulated ATPase assay, DM-purified ΔTMD0; format: biochemical
Protocol: as §1

mouse TAPL ΔTMD0 [2] = molecular target: T2, mouse TAPL ΔTMD0; experiment: Dithionite-based flip-flop (floppase) assay of NBD*-labeled lipids, ΔTMD0 proteoliposomes; format: biochemical; details: 10% (mol/mol) unlabeled POPS, or presence of the 9-mer peptide
Protocol: All lipids used in reconstitution were purchased from Avanti Polar Lipids, Inc. (purity > 99%). The in vitro flip–flop assay was performed using NBD* dye-labeled proteoliposomes as described previously. Briefly, E. coli polar lipids and egg PC were mixed in a 1:1 molar ratio, and 0.5% (mol/mol) NBD*-lipid was added. The lipid mixture was then dried under nitrogen gas. The NBD*-lipids used were 18:1-06:0 NBD*-PS (1-oleoyl-2-{6-[(7-nitro-2-1,3-benzoxadiazol-4-yl)amino]hexanoyl}-sn-glycero-3-phosphoserine), 18:1-06:0 NBD*-PC (1-oleoyl-2-{6-[(7-nitro-2-1,3-benzoxadiazol-4-yl)amino]hexanoyl}-sn-glycero-3-phosphocholine), 18:1-06:0 NBD*-PG (1-oleoyl-2-{6-[(7-nitro-2-1,3-benzoxadiazol-4-yl)amino]hexanoyl}-sn-glycero-3-[phospho-rac-(1-glycerol)]), 18:1-06:0 NBD*-PE (1-oleoyl-2-{6-[(7-nitro-2-1,3-benzoxadiazol-4-yl)amino]hexanoyl}-sn-glycero-3-phosphoethanolamine), and 25-NBD*-Cholesterol (25-[N-[(7-nitro-2-1,3-benzoxadiazol-4-yl)methyl]amino]−27-norcholesterol). Thin lipid films were solubilized in 20 mM HEPES–NaOH pH 8.0, 200 mM NaCl and 5% (v/v) glycerol, incubated at RT for 30 min and subjected to 5 freeze–thaw cycles. After extrusion with a Mini-Extruder at 65 °C, final lipid concentrations were determined by phosphorus assays. Briefly, 10 μL of extruded lipid was added to 10 μL of 2% (w/v) ammonium molybdate and 300 μL of concentrated perchloric acid. The mixture was heated at 250 °C for 30 min, then cooled to RT and mixed with 1.5 mL of 0.4% (w/v) ammonium molybdate and 250 μL of 9% (w/v) L-ascorbic acid. It was again heated at 100 °C for 6 min and cooled to RT. Lipid concentrations were calculated from the absorbance at 820 nm using a standard curve prepared with NaH2PO4 solution. After accurately determining the lipid concentration, DM-purified protein and 5 mM lipid suspension (solubilized in 5 mM DM) were mixed 1:25 (w/w). After incubation at 4 °C for 1.5 h, DM detergent was removed with 75 mg Bio-beads SM-2 by periodic gentle shaking for 1 h at 4 °C (Supplementary Fig. 5a). The beads were replaced once, followed by an additional incubation at 4 °C for 2 h to completely remove detergent. The resulting proteoliposomes were collected by ultracentrifugation at 200,000×g for 1.5 h at 4 °C.
To measure the flip–flop activity, 10 μL of 2 mM NBD*-labeled proteoliposomes were added to 100 μL of reaction buffer (20 mM HEPES–NaOH pH 8.0, 200 mM NaCl, 5 mM ATP and 5% (v/v) glycerol) in the presence of 2 mM MgCl2 (or NaCl), and incubated at 37 °C for 1 h. The mixture was transferred to a 96-well plate and time-dependent fluorescence (λex/λem = 460/538 nm) was recorded every 30 s for 26 min using a fluorescence spectrophotometer (Gemini XPS). After the baseline fluorescence had stabilized, 10 mM sodium dithionite was added to quench the fluorescence of NBD*-lipid present in the outer leaflets of the liposomes. The initial rapid drop and subsequent slow decline in fluorescence intensity were monitored. When a new steady state was established, 1% (v/v) Triton X-100 was added to completely disrupt the liposomes. The net percentage of NBD*-lipid translocated across the lipid bilayer was calculated from the following equation[72]: the percentage of protected NBD*-lipid in the inner leaflet = [(FD−F0)/(FT−F0)]×100, and that of accessible NBD*-lipid in the outer leaflet = [(FT−FD)/(FT−F0)]×100, where FT is the total fluorescence of the sample before the addition of dithionite, FD is the fluorescence of the sample after quenching with dithionite, and F0 is any residual fluorescence of the sample after solubilization with Triton X-100. Fluorescence values (FT, FD, F0) were calculated as the averages of 5 points on the respective plateau lines. The ΔTMD0-mediated lipid floppase activity was determined by subtracting the percentage of NBD*-lipid fluorescence measured in the presence of Na^+/ATP from that measured in the presence of Mg^2+/ATP.

[3] = molecular target: B2; experiment: cryo-EM structure; DM/CHS-purified ΔTMD0 with 1 mM 9-mer peptide, on ice for 30 min; inward-facing, 4.0 Å; details: both partners purified
[4] = molecular target: the molecule itself; experiment: cryo-EM structure; ΔTMD0 in nanodiscs of E. coli polar lipids, no peptides or nucleotides; inward-facing, 3.4 Å
[5] = molecular target: T3, mouse TAPL ΔTMD0 Y405A mutant; experiment: MST; 0.2 μM Cy5-labeled peptide with serial 2-fold dilutions of DM-purified protein, 10 min at RT; Monolith NT.115 pico; details: both partners purified
[6] = molecular target: B2; experiment: as above; details: both partners purified
[7] = lipid stimulation, 3 mM ATP, means ± SEM

## CC(C)CCC[C@@H](C)[C@H]1CC[C@H]2[C@@H]3CC=C4C[C@@H](OC(=O)CCC(=O)O)CC[C@]4(C)[C@H]3CC[C@]12C [CHS, cholesteryl hemisuccinate]
TAPL Y405A mutant
  response of Y405A ATPase to lipid: significantly reduced basal and lipid-stimulated ATPase activity
Mouse TAPL ΔTMD0 [1]; CHS vs POPG
  Vmax relative to POPG-stimulated ATPase activity: ~ 51%
Mouse TAPL ΔTMD0 [1]; lipid stimulation, 3 mM ATP
  maximal ATPase activity (turnover): 80 min⁻¹
Mouse TAPL ΔTMD0 [1]; [7]
  Km: 127 ± 28 µM
  maximal ATPase activity (Vmax): 589 ± 18 nmol/mg/min

## CCCCCCCC/C=C\CCCCCCCC(=O)O[C@H](COC(=O)CCCCCCCCCCCCCCC)COP(=O)(O)OC[C@H](N)C(=O)O [POPS, 1-palmitoyl-2-oleoyl-sn-glycero-3-phospho-l-serine]
Mouse TAPL ΔTMD0 [2]
  effect on translocation of NBD*-PS: significantly inhibited
TAPL Y405A mutant
  response of Y405A ATPase to lipid: significantly reduced basal and lipid-stimulated ATPase activity
Mouse TAPL ΔTMD0 [1]; lipid stimulation, 3 mM ATP
  maximal ATPase activity (turnover): 109 min⁻¹
Mouse TAPL ΔTMD0 [1]; [7]
  maximal ATPase activity (Vmax): 808 ± 44 nmol/mg/min

## B1
[3]
  binding result: binds

## B2
[4]
  stoichiometry N: 2

## B3
[5]
  Kd: 3.8 µM
[6]
  Kd: 0.0519 µM
